ChEMBL document CHEMBL1201862, “PubChem BioAssay data set” (2004)
Activity calls are given as the source filed them.

Columns and labels:
[1] = target: T1, ORF 73 (Human herpesvirus 8, UniProt O40947); experiment: KSHV LANA DNA-binding disruption – biochemical, fluorescence polarization, cherry-picked samples, dose response (AID 504725); design: species or system Human gammaherpesvirus 8;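 also: fluorescence polarization of a labeled DNA duplex reporting LANA DNA binding; potency is for inhibitors that block LANA binding to the DNA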
T1 sequence (O40947 whole entry): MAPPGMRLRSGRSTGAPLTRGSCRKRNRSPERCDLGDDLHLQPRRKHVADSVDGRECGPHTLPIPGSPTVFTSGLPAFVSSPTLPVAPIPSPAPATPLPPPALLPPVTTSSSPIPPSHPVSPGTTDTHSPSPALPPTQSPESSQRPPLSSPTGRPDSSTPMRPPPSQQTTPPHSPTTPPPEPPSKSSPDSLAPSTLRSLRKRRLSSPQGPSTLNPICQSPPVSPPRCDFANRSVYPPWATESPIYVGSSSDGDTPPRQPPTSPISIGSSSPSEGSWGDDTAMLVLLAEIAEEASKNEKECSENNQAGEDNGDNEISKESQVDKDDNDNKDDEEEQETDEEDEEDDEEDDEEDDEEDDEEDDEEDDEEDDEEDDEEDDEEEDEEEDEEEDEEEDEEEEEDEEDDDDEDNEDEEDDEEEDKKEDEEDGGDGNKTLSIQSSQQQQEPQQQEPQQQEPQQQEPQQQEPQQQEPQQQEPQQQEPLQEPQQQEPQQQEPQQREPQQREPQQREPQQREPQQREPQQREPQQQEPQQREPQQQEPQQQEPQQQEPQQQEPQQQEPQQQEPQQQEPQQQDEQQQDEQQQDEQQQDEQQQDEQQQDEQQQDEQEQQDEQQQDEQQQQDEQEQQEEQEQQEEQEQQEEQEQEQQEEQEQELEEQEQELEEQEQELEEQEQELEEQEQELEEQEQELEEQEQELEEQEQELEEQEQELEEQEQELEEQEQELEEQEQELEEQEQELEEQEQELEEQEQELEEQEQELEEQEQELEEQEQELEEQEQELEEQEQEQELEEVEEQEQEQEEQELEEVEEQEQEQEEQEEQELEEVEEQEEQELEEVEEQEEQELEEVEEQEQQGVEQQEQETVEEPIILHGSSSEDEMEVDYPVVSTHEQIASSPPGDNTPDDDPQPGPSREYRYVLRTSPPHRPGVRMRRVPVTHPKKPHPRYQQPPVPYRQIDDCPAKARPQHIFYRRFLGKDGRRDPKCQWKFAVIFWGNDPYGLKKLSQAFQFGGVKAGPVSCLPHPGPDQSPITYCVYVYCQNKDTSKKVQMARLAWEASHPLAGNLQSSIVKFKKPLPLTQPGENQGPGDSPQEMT

[2] = target: G-protein coupled receptor 55 (Homo sapiens, UniProt Q9Y2T6); experiment: inhibition of LPI-stimulated GPR55 beta-arrestin translocation – imaging, U2OS, beta-arrestin-GFP, LPI agonist, primary screen (AID 2013); type: functional;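 also: antagonist potency measured as reduced agonist-driven arrestin aggregation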
[3] = viability of uninfected HEp-2 cells – cell-based, HTS, cytotoxicity control for RSV inhibitor project, dose response (AID 2410); type: functional; conditions: human respiratory syncytial virus
[4] = Luminescence Cell-Based Dose Response HTS to Identify Activators of Luciferase Translation or Activity in H4 […] Cells. [Related pubchem assays: 1829 (Project Summary), 1814 (Primary HTS)]; type: functional
[5] = test system: Streptococcus sp. 'group A'; experiment: Streptococcus pyogenes SK(-)GAS viability under kanamycin – luminescence, BacTiterGlo, confirmation, counter-screen for streptokinase expression inhibitor project, dose response (AID 1900); type: functional, organism-based
[6] = test system: H4; experiment: Luminescence Cell-Based Dose Response HTS to Identify Activators of 5'UTR Stem-Loop Driven Prion Protein mRNA Translation in H4 Neuroglioblastoma Cells. [Related pubchem assays: 1829 (Project Summary), 1814 (Primary HTS)]; type: functional; conditions: Homo sapiens
[7] = target: T2, Streptokinase A (Streptococcus pyogenes serotype M1, UniProt P10520); experiment: viability-normalized secreted streptokinase activity reduction – plasminogen activation absorbance, OD405, dose response (AID 1914); type: functional, Streptococcus pyogenes M1 GAS;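 also: secreted streptokinase activity via plasminogen activation per viability signal from cell pellet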
T2 sequence (P10520 whole entry): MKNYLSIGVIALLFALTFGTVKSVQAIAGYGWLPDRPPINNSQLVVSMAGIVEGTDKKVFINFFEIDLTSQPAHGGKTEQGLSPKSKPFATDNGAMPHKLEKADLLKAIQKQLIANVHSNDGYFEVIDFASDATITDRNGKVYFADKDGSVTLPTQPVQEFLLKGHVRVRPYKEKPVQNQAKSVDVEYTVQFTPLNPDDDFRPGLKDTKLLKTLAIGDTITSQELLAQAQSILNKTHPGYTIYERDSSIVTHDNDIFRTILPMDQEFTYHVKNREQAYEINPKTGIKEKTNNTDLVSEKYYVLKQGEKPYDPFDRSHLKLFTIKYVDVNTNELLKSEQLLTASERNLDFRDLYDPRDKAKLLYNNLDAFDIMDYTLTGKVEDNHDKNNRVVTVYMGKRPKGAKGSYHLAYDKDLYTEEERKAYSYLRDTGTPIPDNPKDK

[8] = test system: Streptococcus; experiment: GAS UMAA2166 growth inhibition – luminescence, BacTiterGlo, counter-screen for streptokinase expression inhibitor project, dose response (AID 1915); type: functional, organism-based;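 also: potency for reduction of bacterial viability or growth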
[9] = target: T3, Coagulation factor XII (Homo sapiens, UniProt P00748); type: functional;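 also: activated factor XIIa alpha cleaving a fluorogenic AMC peptide substrate; inhibitor potency from loss of enzyme activity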
T3 sequence (P00748 whole entry): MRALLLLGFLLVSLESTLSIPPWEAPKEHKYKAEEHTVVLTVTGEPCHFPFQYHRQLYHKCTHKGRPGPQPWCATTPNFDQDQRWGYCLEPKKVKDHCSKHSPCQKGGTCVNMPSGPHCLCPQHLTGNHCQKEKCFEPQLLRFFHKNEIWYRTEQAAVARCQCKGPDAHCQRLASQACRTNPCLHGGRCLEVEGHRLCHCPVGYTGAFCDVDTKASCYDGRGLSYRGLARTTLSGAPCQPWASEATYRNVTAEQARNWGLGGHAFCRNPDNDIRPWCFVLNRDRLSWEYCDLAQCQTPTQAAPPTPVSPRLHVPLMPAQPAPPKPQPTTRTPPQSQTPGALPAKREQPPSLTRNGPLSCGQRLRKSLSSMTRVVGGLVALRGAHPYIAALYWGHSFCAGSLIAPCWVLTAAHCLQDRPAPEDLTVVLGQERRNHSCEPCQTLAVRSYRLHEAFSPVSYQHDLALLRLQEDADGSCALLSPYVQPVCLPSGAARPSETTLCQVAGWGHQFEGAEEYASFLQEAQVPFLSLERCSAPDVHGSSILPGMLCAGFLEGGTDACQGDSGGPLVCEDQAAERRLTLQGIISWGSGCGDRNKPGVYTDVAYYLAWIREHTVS

[10] = target: Glyceraldehyde-3-phosphate dehydrogenase (Homo sapiens, UniProt P04406)
[11] = target: T4, Alkaline phosphatase, tissue-nonspecific isozyme (Homo sapiens, UniProt P05186); experiment: potency against alkaline phosphatase TNAP – biochemical, luminescent, dose response, SAR follow-up (AID 1056)
T4 sequence (P05186 whole entry): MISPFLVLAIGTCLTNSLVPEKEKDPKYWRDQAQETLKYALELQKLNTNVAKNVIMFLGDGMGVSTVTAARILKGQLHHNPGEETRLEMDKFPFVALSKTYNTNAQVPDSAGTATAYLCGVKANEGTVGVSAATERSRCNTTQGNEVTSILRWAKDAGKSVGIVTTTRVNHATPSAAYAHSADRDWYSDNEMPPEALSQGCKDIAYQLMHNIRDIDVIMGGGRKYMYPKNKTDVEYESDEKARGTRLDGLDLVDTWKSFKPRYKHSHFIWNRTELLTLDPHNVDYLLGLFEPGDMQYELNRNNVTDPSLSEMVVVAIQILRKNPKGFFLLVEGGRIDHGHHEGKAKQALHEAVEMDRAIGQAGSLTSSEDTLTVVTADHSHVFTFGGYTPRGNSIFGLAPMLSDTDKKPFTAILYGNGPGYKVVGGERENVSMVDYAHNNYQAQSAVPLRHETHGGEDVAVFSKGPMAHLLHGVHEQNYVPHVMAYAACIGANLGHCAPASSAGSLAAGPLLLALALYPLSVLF

[12] = target: T5, Tyrosine-protein phosphatase non-receptor type 12 (Homo sapiens, UniProt Q05209); experiment: SAR Selectivity Analysis of small molecule inhibitors of PEST using pCAP in a fluorescence assay. [Related pubchem assays (depositor defined):AID1779, AID1784, AID2135]; type: functional
T5 sequence (Q05209 whole entry): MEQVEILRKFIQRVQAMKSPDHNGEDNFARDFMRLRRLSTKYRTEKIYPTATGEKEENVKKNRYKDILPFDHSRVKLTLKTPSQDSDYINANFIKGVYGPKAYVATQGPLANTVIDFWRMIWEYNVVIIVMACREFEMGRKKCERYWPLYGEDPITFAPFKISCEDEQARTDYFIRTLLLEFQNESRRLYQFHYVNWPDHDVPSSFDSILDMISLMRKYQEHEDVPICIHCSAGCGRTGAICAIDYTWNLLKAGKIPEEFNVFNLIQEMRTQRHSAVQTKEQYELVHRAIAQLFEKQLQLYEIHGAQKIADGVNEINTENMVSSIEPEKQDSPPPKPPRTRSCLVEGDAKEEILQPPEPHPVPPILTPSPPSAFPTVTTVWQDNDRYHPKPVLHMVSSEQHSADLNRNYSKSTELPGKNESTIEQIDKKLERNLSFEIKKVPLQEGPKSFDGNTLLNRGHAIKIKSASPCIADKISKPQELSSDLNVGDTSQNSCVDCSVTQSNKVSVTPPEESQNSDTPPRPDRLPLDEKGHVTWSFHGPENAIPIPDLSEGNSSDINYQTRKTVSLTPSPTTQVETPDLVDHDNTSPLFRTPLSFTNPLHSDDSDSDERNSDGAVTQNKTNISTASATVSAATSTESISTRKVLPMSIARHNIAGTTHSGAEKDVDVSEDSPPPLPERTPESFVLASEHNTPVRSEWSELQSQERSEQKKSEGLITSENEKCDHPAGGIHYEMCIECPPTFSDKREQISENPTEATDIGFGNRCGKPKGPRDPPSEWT

[13] = target: T6, Tyrosine-protein phosphatase non-receptor type 22 (Homo sapiens, UniProt Q9Y2R2); experiment: SAR LYP1 Fluorescent Assay using OMFP substrate for In Vitro dose response studies - Set 3. [Related pubchem assays (depositor defined):AID1779, AID1784, AID2140, AID2686]; type: functional
T6 sequence (Q9Y2R2 whole entry): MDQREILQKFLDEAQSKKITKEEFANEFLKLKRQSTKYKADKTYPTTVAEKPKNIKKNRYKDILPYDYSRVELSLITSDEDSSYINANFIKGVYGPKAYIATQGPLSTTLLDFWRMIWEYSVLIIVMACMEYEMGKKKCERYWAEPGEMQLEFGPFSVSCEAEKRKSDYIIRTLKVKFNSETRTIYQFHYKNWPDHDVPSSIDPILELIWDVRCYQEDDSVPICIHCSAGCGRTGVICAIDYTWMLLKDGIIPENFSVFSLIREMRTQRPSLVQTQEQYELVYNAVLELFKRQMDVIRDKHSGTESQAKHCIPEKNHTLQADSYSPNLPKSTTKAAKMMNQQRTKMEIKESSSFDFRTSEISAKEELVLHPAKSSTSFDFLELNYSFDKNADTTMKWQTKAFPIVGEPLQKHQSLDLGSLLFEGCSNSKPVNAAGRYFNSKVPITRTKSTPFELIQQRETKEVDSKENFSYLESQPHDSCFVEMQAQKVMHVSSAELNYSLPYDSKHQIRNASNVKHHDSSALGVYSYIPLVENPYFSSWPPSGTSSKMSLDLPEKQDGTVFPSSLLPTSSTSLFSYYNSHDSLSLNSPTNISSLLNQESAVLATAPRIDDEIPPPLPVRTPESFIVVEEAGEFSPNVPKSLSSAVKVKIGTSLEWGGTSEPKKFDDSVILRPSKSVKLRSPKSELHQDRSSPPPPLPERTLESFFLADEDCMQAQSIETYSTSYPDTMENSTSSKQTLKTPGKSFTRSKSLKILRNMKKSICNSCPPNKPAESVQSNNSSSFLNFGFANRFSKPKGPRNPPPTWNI

[14] = target: T6, Tyrosine-protein phosphatase non-receptor type 22; experiment: inhibition of lymphoid tyrosine phosphatase LYP – biochemical, pCAP fluorogenic substrate, fluorescence, set 3, SAR follow-up (AID 449727); type: functional
[15] = target: Peroxisome proliferator-activated receptor gamma/Nuclear receptor coactivator 2 (Homo sapiens, UniProt P37231); type: functional;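 also: agonist potency for raising coactivator recruitment to the receptor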
[16] = target: Peroxisome proliferator-activated receptor gamma/Nuclear receptor coactivator 1 (Homo sapiens, UniProt P37231); type: functional;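 also: agonist potency as compounds enhance coactivator SRC-1 recruitment to PPARgamma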
[17] = target: Peroxisome proliferator-activated receptor gamma/Nuclear receptor coactivator 3 (Homo sapiens, UniProt P37231); type: functional;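 also: agonist potency for raising coactivator recruitment to the receptor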
[18] = target: Prothrombin (Homo sapiens, UniProt P00734); experiment: Thrombin 1536 HTS Dose Response Confirmation. [Related pubchem assays: 1046 (Thrombin 1536 HTS; hits were confirmed in this assay)]; type: functional

Glyceraldehyde-3-phosphate dehydrogenase, sequence (P04406 whole entry): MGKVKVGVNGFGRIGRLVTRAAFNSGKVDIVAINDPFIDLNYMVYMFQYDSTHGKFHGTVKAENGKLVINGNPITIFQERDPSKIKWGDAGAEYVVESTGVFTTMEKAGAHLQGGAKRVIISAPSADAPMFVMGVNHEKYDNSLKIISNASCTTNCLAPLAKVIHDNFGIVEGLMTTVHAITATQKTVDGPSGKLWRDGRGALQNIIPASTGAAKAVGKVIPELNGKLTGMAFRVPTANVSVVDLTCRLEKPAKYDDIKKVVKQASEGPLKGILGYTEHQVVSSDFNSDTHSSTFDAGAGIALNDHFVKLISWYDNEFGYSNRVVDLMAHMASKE
G-protein coupled receptor 55, sequence (Q9Y2T6 whole entry): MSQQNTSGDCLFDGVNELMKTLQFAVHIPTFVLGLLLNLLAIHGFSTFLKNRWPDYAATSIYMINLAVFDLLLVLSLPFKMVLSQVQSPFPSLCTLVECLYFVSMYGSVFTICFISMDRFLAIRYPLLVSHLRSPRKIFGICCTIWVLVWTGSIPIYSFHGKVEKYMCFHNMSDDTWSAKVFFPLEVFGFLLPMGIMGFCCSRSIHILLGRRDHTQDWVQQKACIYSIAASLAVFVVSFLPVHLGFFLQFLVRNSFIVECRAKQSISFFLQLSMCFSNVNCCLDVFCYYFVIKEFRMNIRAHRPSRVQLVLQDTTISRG
Peroxisome proliferator-activated receptor gamma/Nuclear receptor coactivator 1, sequence (P37231 whole entry): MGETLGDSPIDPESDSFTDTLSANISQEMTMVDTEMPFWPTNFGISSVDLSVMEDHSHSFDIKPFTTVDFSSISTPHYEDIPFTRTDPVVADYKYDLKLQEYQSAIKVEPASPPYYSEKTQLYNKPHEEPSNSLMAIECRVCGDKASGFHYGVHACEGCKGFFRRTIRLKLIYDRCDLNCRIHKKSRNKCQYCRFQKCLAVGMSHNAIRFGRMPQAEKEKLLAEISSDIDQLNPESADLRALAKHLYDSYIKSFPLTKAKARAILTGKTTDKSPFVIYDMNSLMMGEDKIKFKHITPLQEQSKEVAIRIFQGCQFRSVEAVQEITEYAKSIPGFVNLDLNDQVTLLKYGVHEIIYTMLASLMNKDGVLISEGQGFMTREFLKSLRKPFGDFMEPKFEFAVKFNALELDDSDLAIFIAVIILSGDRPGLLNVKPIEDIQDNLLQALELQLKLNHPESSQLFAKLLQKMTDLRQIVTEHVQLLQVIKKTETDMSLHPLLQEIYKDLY
Peroxisome proliferator-activated receptor gamma/Nuclear receptor coactivator 1, sequence (Q15788 whole entry, further chain): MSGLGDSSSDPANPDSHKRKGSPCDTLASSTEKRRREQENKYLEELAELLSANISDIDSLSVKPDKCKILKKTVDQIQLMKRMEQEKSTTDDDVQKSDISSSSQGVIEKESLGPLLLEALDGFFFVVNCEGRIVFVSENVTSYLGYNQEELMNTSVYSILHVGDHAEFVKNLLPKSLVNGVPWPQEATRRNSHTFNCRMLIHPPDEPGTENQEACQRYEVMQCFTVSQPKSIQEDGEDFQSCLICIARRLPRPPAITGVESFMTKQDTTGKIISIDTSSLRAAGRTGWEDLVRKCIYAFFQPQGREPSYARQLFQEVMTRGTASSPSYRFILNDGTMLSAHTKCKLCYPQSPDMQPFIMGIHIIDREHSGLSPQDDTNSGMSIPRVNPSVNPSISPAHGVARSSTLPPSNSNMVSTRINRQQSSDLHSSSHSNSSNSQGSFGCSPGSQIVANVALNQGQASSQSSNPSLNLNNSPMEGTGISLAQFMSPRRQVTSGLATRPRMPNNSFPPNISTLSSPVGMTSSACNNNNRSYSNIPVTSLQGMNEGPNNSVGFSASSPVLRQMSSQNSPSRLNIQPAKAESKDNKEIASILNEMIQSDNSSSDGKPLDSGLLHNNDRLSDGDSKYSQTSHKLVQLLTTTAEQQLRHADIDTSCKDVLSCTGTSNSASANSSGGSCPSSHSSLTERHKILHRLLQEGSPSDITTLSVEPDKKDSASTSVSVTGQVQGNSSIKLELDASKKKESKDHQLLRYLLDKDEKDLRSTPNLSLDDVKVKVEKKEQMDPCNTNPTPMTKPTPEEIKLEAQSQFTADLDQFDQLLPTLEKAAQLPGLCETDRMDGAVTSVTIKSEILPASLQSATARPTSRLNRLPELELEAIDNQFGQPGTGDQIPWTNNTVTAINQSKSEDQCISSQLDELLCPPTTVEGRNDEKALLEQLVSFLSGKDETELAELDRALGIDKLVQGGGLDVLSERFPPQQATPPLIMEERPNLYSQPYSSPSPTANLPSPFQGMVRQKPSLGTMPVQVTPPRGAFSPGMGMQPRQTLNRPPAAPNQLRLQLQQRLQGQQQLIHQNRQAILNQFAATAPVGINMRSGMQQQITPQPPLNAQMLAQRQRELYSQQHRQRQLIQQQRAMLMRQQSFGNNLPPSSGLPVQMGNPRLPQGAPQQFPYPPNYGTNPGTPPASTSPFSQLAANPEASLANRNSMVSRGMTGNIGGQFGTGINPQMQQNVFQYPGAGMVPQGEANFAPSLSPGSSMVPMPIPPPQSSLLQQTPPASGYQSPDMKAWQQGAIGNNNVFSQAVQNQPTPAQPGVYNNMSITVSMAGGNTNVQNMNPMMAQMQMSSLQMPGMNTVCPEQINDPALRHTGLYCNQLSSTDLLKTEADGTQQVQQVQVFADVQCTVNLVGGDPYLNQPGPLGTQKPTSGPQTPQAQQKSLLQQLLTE
Peroxisome proliferator-activated receptor gamma/Nuclear receptor coactivator 2, sequence (P37231 whole entry): as the sequence (P37231 whole entry) above
Peroxisome proliferator-activated receptor gamma/Nuclear receptor coactivator 2, sequence (Q15596 whole entry, further chain): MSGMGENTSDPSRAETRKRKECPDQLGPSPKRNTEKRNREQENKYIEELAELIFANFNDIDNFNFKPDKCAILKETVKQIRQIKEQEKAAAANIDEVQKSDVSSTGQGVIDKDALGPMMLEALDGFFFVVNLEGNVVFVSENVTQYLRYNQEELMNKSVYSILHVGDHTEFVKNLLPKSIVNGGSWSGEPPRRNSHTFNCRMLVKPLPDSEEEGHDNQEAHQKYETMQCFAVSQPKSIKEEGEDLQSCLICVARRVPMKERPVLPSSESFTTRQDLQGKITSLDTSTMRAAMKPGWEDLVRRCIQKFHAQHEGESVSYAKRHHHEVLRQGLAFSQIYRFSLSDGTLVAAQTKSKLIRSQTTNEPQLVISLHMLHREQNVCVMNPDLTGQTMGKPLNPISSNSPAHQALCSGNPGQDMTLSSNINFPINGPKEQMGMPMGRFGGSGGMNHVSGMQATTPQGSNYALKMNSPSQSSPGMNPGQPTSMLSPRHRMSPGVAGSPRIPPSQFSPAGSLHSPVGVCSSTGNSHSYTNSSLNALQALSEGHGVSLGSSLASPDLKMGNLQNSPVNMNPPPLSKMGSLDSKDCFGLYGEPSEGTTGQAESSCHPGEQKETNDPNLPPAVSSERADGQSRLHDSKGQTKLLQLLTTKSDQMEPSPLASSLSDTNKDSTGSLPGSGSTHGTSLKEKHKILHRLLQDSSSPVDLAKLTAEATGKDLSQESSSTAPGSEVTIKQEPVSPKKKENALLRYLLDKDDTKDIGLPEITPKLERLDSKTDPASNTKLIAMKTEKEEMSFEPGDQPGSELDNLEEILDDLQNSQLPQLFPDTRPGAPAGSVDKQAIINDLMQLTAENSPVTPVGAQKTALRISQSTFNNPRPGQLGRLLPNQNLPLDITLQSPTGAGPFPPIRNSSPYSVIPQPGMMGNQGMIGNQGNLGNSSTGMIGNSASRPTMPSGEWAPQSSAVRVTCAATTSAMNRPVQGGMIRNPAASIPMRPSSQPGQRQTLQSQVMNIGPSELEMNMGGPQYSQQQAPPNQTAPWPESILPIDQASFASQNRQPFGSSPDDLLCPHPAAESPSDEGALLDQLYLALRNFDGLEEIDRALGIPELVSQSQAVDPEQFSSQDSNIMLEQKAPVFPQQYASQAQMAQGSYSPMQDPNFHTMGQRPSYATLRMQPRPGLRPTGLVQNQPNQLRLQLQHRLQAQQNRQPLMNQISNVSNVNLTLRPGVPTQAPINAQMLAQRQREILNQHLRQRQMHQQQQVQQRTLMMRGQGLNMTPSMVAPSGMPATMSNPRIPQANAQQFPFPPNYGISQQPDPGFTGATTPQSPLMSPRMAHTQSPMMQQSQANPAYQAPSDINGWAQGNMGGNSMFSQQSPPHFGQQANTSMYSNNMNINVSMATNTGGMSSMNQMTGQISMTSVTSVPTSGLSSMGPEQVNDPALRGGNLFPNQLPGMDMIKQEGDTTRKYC

## CC(Oc1ccccc1)c1nnc(N)s1 (stereo not drawn)
[1]
  AC50: 53 µM (active)

## Clc1ccc(-c2noc(CSc3nnc(Cc4cccs4)n3-c3ccccc3)n2)cc1
[2]
  IC50: 2.67 µM (active)

## N=C1S/C(=C\c2cn[nH]c2-c2ccc(F)cc2)C(=O)N1c1ccccc1F
[3]
  CC50: 20.2 µM (active)
[4]
  EC50: 8.92 µM (active)
[5]
  EC50: 4.49 µM (active)
[6]
  EC50: > 120 µM (not active)
[7]
  EC50: > 150 µM (not active)
[2]
  IC50: < 0.5 µM (active)
[8]
  EC50: 38.9 µM (active)

## CC1=C(C(=O)OCC2CCCO2)C(c2ccc(C)o2)C2=C(O)CC(c3ccc(F)cc3)CC2=N1 (stereo not drawn)
[9]
  IC50: > 50 µM (inactive)

## O=C(O)c1ccc(-c2ccccc2Cl)o1
[10]
  IC50: > 100 µM (not active)
[11]
  IC50: > 100 µM (inactive)

## CCOc1ccc(C)cc1S(=O)(=O)Nc1cccnc1
[10]
  IC50: > 10 µM (inconclusive)
[11]
  IC50: 0.858 µM (active)

## O=C(O)CN1C(=O)/C(=C\c2ccc(C(=O)O)cc2)SC1=S
[10]
  IC50: > 100 µM (not active)
[12]
  IC50: 24.5 µM (active)
[13]
  IC50: > 100 µM (inactive)
[14]
  IC50: 88.9 µM (active)

## O=C(O)CN1C(=O)/C(=C\c2cccc([N+](=O)[O-])c2)SC1=S
[10]
  IC50: > 100 µM (not active)
[12]
  IC50: > 100 µM (inactive)
[13]
  IC50: > 100 µM (inactive)
[14]
  IC50: > 100 µM (inactive)

## Cc1cc(C(=O)NCCc2ccc(O)c(O)c2)oc1C
[11]
  IC50: 57.3 µM (active)

## COc1ccccc1N(CC(=O)NCC1CCCO1)C(=O)CCC(=O)Nc1nccs1 (stereo not drawn)
[15]
  EC50: > 79.4 µM (not active)
[16]
  EC50: > 79.4 µM (not active)
[17]
  EC50: > 79.4 µM (not active)

## CN(Cc1ccccn1)Cc1nc(-c2ccc(Cl)cc2)no1
[18]
  IC50: > 50 µM (not active)
[9]
  IC50: > 50 µM (inactive)
